Assay results taken from patent publication US4049660A, “N-substituted derivatives of 4 (N-piperazinylmethyl) spiro dibenzocycloheptadi- (or tri-) ene-5, 2-dioxolane (1,3) their method of preparation and their application in therapeutics” (Delalande S.A., priority 1971, dated 1977).
Like-named read-outs stand apart in the source and are kept apart here.

Tests used:
[1] = Acute toxicity / mortality, oral, mice; assay type: in vivo; settings: mouse, in vivo; for LD50: oral; for mortality: read-out: Percentage of mortality with mice
Source text: As is shown by the preceding results and by those given in Table XIV below, the difference between pharmacologically active doses and lethal doses is sufficiently great to allow the use of compounds of formula (I) in therapeutics.

[2] = system: ptosis caused by reserpine; test: Anti-depressive: antagonism against ptosis caused by intravenous reserpine; assay type: in vivo; settings: for ED50: po, read-out: Antagonism against ptosis caused by reserpine (DE50)
Method: (§1) In this regard, the compounds of formula I differ unexpectedly from the compounds of U.S. Pat. No. 3,726,900, as shown by comparative testing.
(§2) The anti-depressive properties of additional analog compounds were tested by the same tests. In these tests, the comparison compounds had the formula [drawing 28] The specific compounds tested and the test results are indicated in Table XIII.

[3] = system: lethal effect of yohimbine; test: Anti-depressive: potentialization of lethal effect of yohimbine; assay type: in vivo
Method: as §1, §2

[4] = system: ventricular fibrillations caused by inhaling chloroform; test: Antiarythmic: ventricular fibrillations caused by inhaling chloroform in mouse; assay type: in vivo; settings: ip, intraperitoneal, read-out: Antagonism to fibrillations caused by chloroform with a mouse, DE50
Source text: Administered intraperitoneally, the compounds of formula (I) are able to protect the mouse against ventricular fibrillations caused by inhaling chloroform.

[5] = system: painful stretchings following intraperitoneal injection of acetic acid; test: Analgesic: painful stretchings following intraperitoneal acetic acid in mouse; assay type: in vivo; settings: 100 mg/kg/PO, read-out: Percentage reduction in the number of painful stretchings
Source text: The compounds of formula (I) administered orally to a mouse are capable of reducing the number of painful stretchings following the intraperitoneal injection of acetic acid.

[6] = system: isolated fundus of rats (serotonine); test: Antiserotonine: contractions of the isolated fundus of rats provoked by serotonine; settings: in vitro
Source text: (§3) For purposes of comparison, compounds of the formula (I) were compared, as to their antiserotonine properties, with a respresentative sampling of compounds disclosed in U.S. Pat. No. 3,726,900. The comparison compounds tested have the formula [drawing 23]

[7] = system: isolated duodenum of a rat (barium chloride); test: Spasmolytic: contraction by barium chloride of isolated duodenum of a rat
Method: Compounds of formula I, introduced in the survival medium, are capable of opposing the contacting action of barium chloride on the isolated duodenum of a rat. This activity is determined either by taking papaverine as the standard or by calculating the DE50 of the compound tested.

[8] = system: bronchoconstrictions provoked by serotonine; test: Antiserotonine: bronchoconstrictions provoked by intravenous serotonine in guinea pigs (Konzett and Rossler test); assay type: in vivo; settings: Cavia porcellus, serotonine bronchoconstriction, read-out: Test of Konzett and Rossler DE50
Source text: as §3

[9] = system: cough caused by stimulation of the upper laryngeal nerve; test: Anti-cough: cough caused by stimulation of the upper laryngeal nerve in an anaesthetized cat; assay type: in vivo; settings: 1 mg/kg/IV
[10] = system: arterial pressure; test: Hypotensive: arterial pressure of anaesthetized rat; assay type: in vivo; settings: 1 mg/kg/IV
Source text: Administered intravenously to an anaesthetized rat, the compounds of formula (I) cause a lowering of arterial pressure.

[11] = system: isolated tied uterus (serotonine); test: Antiserotonine: contractions of the isolated tied uterus provoked by serotonine; settings: in vitro
Source text: as §3

[12] = mice, Table XI, read-out: LD50 (mice)

Which results are given for `CCNCC1COC2(O1)c1ccccc1CCc1ccccc12` (centres unmarked) [R = C2 H5 (--Z-- = --CH2 --CH2 --), reference compound]?
LD50 ([1]; Table XIII, read-out: LD50): 550 mg/kg; ED50 ([2]; Table XIII): ~50 mg/kg

For `CCNCC1COC2(O1)c1ccccc1C=Cc1ccccc12` (centres unmarked) [R = C2 H5 (--Z-- = --CH = CH--), reference compound], which LD50 ([1]; Table XIII, read-out: LD50) is on record?
Its LD50 is 375 mg/kg.

And the ED50 ([2]; Table XIII)?
The ED50 was 70 mg/kg.

What about the “Potentialization of lethal effect of yohimbine” value ([3]; at 50 mg/kg/PO, Table XIII) of the same compound?
The value was 60%.

Which LD50 ([1]; Table XIII, read-out: LD50) does the source give for `CC(C)NCC1COC2(O1)c1ccccc1C=Cc1ccccc12` (centres unmarked) [R = C3 H7 (i) (--Z-- = --CH = CH--), reference compound] here?
Its LD50 is 550 mg/kg.

What about the “Antagonism against ptosis caused by reserpine” value ([2]; at 50 mg/kg/PO, Table XIII) of the same compound?
The value was 20%.

What does the source list for `CCC(C)NCC1COC2(O1)c1ccccc1CCc1ccccc12` (centres unmarked) [R = C4 H9 (s) (--Z-- = --CH2 --CH2 --), reference compound]?
LD50 ([1]; Table XIII, read-out: LD50): 900 mg/kg; ED50 ([2]; Table XIII): 45 mg/kg; Potentialization of lethal effect of yohimbine ([3]; at 50 mg/kg/PO, Table XIII): ~40%

Which results are given for `CNCC1COC2(O1)c1ccccc1CCc1ccccc12` (centres unmarked) [R = CH3 (--Z-- = --CH2 --CH2 --), reference compound]?
LD50 ([1]; Table XIII, read-out: LD50): 850 mg/kg; ED50 ([2]; Table XIII): 60 mg/kg

What does the source list for `CNCC1COC2(O1)c1ccccc1C=Cc1ccccc12` (centres unmarked) [R = CH3 (--Z-- = --CH = CH--), reference compound]?
LD50 ([1]; Table XIII, read-out: LD50): 750 mg/kg; ED50 ([2]; Table XIII): 25 mg/kg

With `CCCN(CCC)C(=O)CN1CCN(CC2COC3(O2)c2ccccc2C=Cc2ccccc23)CC1` (centres unmarked) [compound 7204, -4'-[N'-(di-n-propylaminocarbonylmethyl) N-piperazinylmethyl] spiro [dibenzo(a,d)cycloheptatriene-5:2' dioxolane (1',3')] dimaleate] as the compound, how does the mortality ([1]; 1900 mg/kg/PO) read?
The mortality was ~50%.

What about the LD50 [1, 12] of the same compound?
The LD50 was 1900 mg/kg.

And the ED50 [4]?
The ED50 was 100 mg/kg.

And the inhibition in vivo at 100 mg/kg [5]?
The inhibition in vivo at 100 mg/kg was 70%.

And the Antagonisms against contractions of fundus of rat, DE50 [6]?
The Antagonisms against contractions of fundus of rat, DE50 was 0.07 µg/mL.

What about the “DE50 (spasmolytic)” value [7] of the same compound?
The value was 2.50 µg/mL.

What does the source list for `C1=Cc2ccccc2C2(OCC(CN3CCCC3)O2)c2ccccc21` (centres unmarked) [compound 70301, reference compound]?
LD50 [1, 12]: 425 mg/kg; ED50 [8]: 0.4 mg/kg

Which results are given for `C1=Cc2ccccc2C2(OCC(CN3CCCCC3)O2)c2ccccc21` (centres unmarked) [compound 70315, reference compound]?
LD50 [1, 12]: 700 mg/kg; ED50 [8]: 1.4 mg/kg; Antagonism against ptosis caused by reserpine ([2]; at 75 mg/kg/PO): 45%

With `O=C(CN1CCN(CC2COC3(O2)c2ccccc2CCc2ccccc23)CC1)N1CCCC1` (centres unmarked) [compound 70339] as the compound, how does the “Reduction of cough, duration” value [9] read?
The value was 20 mm.

And the “Reduction of cough, intensity” value [9]?
The value was 100%.

And the mortality ([1]; 1200 mg/kg/PO)?
Its mortality is ~50%.

What about the LD50 [1, 12] of the same compound?
The LD50 was 1200 mg/kg.

What about the ED50 [8] of the same compound?
Its ED50 is 0.1 mg/kg.

What about the “Reduction of arterial pressure, duration” value [10] of the same compound?
Its value is > 30 mm.

And the “Reduction of arterial pressure, intensity” value [10]?
Its value is 80%.

What about the Antagonisms against contractions of tied uterus, DE50 [11] of the same compound?
Its Antagonisms against contractions of tied uterus, DE50 is 0.002 µg/mL.

What about the inhibition in vivo at 100 mg/kg [5] of the same compound?
Its inhibition in vivo at 100 mg/kg is 75%.

What about the “Antagonism against ptosis caused by reserpine” value ([2]; at 100 mg/kg/PO) of the same compound?
The value was “Inactive”.

What about the “Potentialization of lethal effect of yohimbine” value ([3]; at 100 mg/kg/PO, result in words) of the same compound?
Its value is “Inactive”.

What about the Antagonisms against contractions of fundus of rat, DE50 [6] of the same compound?
Its Antagonisms against contractions of fundus of rat, DE50 is 0.67 µg/mL.

What about the Spasmolytic activity ([7]; relative to papaverine as the standard) of the same compound?
The Spasmolytic activity was 1 × papaverine.
